Laboratory results published in the supplement of paper PMC10307832.

Columns and labels:
Test in all cases: relative viability (nuclei count vs DMSO), 5 days (fraction); higher = more cells survive
[1] = compound: CN(C)C[C@@H]1CCn2cc(c3ccccc32)C2=C(C(=O)NC2=O)c2cn(c3ccccc23)CCO1 [Ruboxistaurin] + Cc1nc(Nc2ncc(C(=O)Nc3c(C)cccc3Cl)s2)cc(N2CCN(CCO)CC2)n1 [Dasatinib] (partner 0.075 µM)
Summary of the method: (§1)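 Lung cancer cell lines were pin-tool dosed in 1536-well plates on the day after seeding, with either a lone drug or a fixed anchor-drug dose plus five library-drug doses (not always all listed) in √10 steps. Nuclei were counted on 4× images after 5 days. Relative viability is the ratio of treated-well to vehicle-well nuclei counts, with each value a median of duplicate plates.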

[2] = compound: CN(C)C[C@@H]1CCn2cc(c3ccccc32)C2=C(C(=O)NC2=O)c2cn(c3ccccc23)CCO1 [Ruboxistaurin] + CC(=O)Nc1cccc(-n2c(=O)n(C3CC3)c(=O)c3c(Nc4ccc(I)cc4F)n(C)c(=O)c(C)c32)c1 [Trametinib] (partner 0.02 µM)
Summary of the method: as §1

[3] = compound: CN(C)C[C@@H]1CCn2cc(c3ccccc32)C2=C(C(=O)NC2=O)c2cn(c3ccccc23)CCO1 [Ruboxistaurin] + CS(=O)(=O)CCNCc1ccc(-c2ccc3ncnc(Nc4ccc(OCc5cccc(F)c5)c(Cl)c4)c3c2)o1 [Lapatinib] (partner 2 µM)
Summary of the method: as §1

[4] = compound: CN(C)C[C@@H]1CCn2cc(c3ccccc32)C2=C(C(=O)NC2=O)c2cn(c3ccccc23)CCO1 [Ruboxistaurin] + COc1cc2c(Oc3ccc(NC(=O)C4(C(=O)Nc5ccc(F)cc5)CC4)cc3F)ccnc2cc1OCCCN1CCOCC1 [Foretinib] (partner 0.25 µM)
Summary of the method: as §1

[5] = compound: CN(C)C[C@@H]1CCn2cc(c3ccccc32)C2=C(C(=O)NC2=O)c2cn(c3ccccc23)CCO1 [Ruboxistaurin] + CC1(C)CCC(c2ccc(Cl)cc2)=C(CN2CCN(c3ccc(C(=O)NS(=O)(=O)c4ccc(N[C@H](CCN5CCOCC5)CSc5ccccc5)c(S(=O)(=O)C(F)(F)F)c4)cc3)CC2)C1 [Navitoclax] (partner 0.5 µM)
Summary of the method: as §1

Cell Line	relative viability ([1]; first compound 0.08 µM)	relative viability ([1]; first compound 0.8 µM)	relative viability ([1]; first compound 2.53 µM)	relative viability ([1]; first compound 8 µM)	relative viability ([2]; first compound 0.08 µM)	relative viability ([2]; first compound 0.8 µM)	relative viability ([2]; first compound 2.53 µM)	relative viability ([2]; first compound 8 µM)	relative viability ([3]; first compound 0.08 µM)	relative viability ([3]; first compound 0.8 µM)	relative viability ([3]; first compound 2.53 µM)	relative viability ([3]; first compound 8 µM)	relative viability ([4]; first compound 0.08 µM)	relative viability ([4]; first compound 0.8 µM)	relative viability ([4]; first compound 2.53 µM)	relative viability ([4]; first compound 8 µM)	relative viability ([5]; first compound 0.08 µM)	relative viability ([5]; first compound 0.8 µM)	relative viability ([5]; first compound 2.53 µM)	relative viability ([5]; first compound 8 µM)
201T	0.572	0.536	0.603	0.559	0.739	0.705	0.764	0.747	1.06	1	1.06	1.05	1.17	1.02	1.19	0.995	1.21	1.18	1.24	1.25
A-427	0.677	0.639	0.675	0.374	0.88	0.692	0.752	0.548	0.995	0.988	0.917	0.983	1.01	0.952	0.928	0.659	0.947	0.816	0.831	0.752
ABC-1	0.638	0.56	0.633	0.465	–	–	–	–	1.48	1.01	1.06	1.47	1.21	1.13	1.26	1.11	–	–	–	–
BEN	0.316	0.297	0.307	0.298	1.07	0.976	1.01	0.895	0.803	0.617	0.708	0.564	0.725	0.722	0.712	0.49	0.0424	0.0646	0.0707	0.114
CAL-12T	0.339	0.324	0.301	0.28	0.303	0.347	0.323	0.399	0.735	0.554	0.765	0.78	1.28	1.18	1.16	1.16	1.22	1.28	1.31	1.26
COR-L23	0.489	0.399	0.549	0.602	0.749	0.581	0.571	0.59	1.23	0.914	1.09	1.08	1.06	0.951	1.11	1.05	1.16	1.01	1.03	0.998
COR-L 105	0.352	0.236	0.362	0.262	0.43	0.364	0.463	0.441	0.335	0.385	0.365	0.341	1.37	0.826	1.1	0.87	0.741	0.64	0.776	0.807
ChaGo-K-1	0.564	0.611	0.636	0.478	0.972	0.814	0.941	0.956	–	–	–	–	0.916	0.888	0.965	0.912	1.38	1.08	0.925	0.703
EKVX	0.641	0.476	0.551	0.579	0.359	0.287	0.336	0.281	0.2	0.19	0.216	0.188	0.898	0.694	0.848	0.738	0.981	0.903	1.03	0.882
EMC-BAC-2	0.328	0.262	0.256	0.138	0.94	0.841	0.775	0.721	0.879	0.856	0.866	0.802	1.03	0.872	1.03	0.51	1.28	1.08	1.11	1.05
EPLC-272H	0.354	0.371	0.342	0.282	0.347	0.228	0.27	0.257	0.966	0.916	0.933	0.962	0.853	0.548	0.703	0.472	1.28	0.96	1.41	1.18
H3255	0.495	0.353	0.347	0.335	0.635	0.479	0.644	0.536	0.221	0.217	0.27	0.221	0.849	0.867	0.879	0.876	0.548	0.438	0.519	0.478
HARA	0.216	0.232	0.228	0.3	0.674	0.636	0.653	0.684	0.803	0.672	0.712	0.57	0.842	0.865	0.993	0.813	1.2	1.16	1.14	1.14
HCC-15	0.683	0.593	0.489	0.518	0.401	0.388	0.409	0.417	0.879	0.88	0.879	0.947	1.1	0.927	1.12	1.09	0.724	0.64	0.71	0.62
HCC-44	–	–	–	–	1.02	1	1.06	1.21	0.982	1	1.03	1.1	–	–	–	–	1.05	0.883	1.02	0.971
HCC-78	0.52	0.399	0.377	0.283	0.886	0.711	0.738	0.912	0.745	0.717	0.774	0.944	0.553	0.593	0.546	0.528	0.802	0.686	0.812	0.793
HCC-366	0.564	0.526	0.624	0.52	0.393	0.331	0.349	0.321	1.12	0.988	1.02	1.01	1.08	0.919	0.882	0.874	1.05	0.81	1.16	0.995
HCC-827	0.36	0.241	0.327	0.278	0.555	0.499	0.517	0.533	0.243	0.191	0.184	0.165	1.17	1.03	1.03	1	1.05	1.05	1.01	1.04

Cell Line	relative viability ([1]; first compound 0.08 µM)	relative viability ([1]; first compound 0.8 µM)	relative viability ([1]; first compound 2.53 µM)	relative viability ([1]; first compound 8 µM)	relative viability ([2]; first compound 0.08 µM)	relative viability ([2]; first compound 0.8 µM)	relative viability ([2]; first compound 2.53 µM)	relative viability ([2]; first compound 8 µM)	relative viability ([3]; first compound 0.08 µM)	relative viability ([3]; first compound 0.8 µM)	relative viability ([3]; first compound 2.53 µM)	relative viability ([3]; first compound 8 µM)	relative viability ([4]; first compound 0.08 µM)	relative viability ([4]; first compound 0.8 µM)	relative viability ([4]; first compound 2.53 µM)	relative viability ([4]; first compound 8 µM)	relative viability ([5]; first compound 0.08 µM)	relative viability ([5]; first compound 0.8 µM)	relative viability ([5]; first compound 2.53 µM)	relative viability ([5]; first compound 8 µM)
HOP-62	0.746	0.628	0.634	0.673	0.401	0.33	0.361	0.361	0.995	0.978	0.997	1	1.13	1.07	1.13	1.22	1.15	1	1.12	1.35
IA-LM	–	–	–	–	–	–	–	–	0.751	–	1.07	0.789	1.14	1.11	1.31	1.38	0.852	0.722	0.862	0.987
LC-2-ad	0.672	0.651	0.575	0.558	0.953	0.877	0.928	0.984	1.1	0.889	1.02	1.02	1.03	0.905	1.02	0.747	0.474	0.395	0.557	0.345
LCLC-97TM1	0.891	0.896	0.968	0.821	0.207	0.141	0.203	0.154	1.1	–	1.6	1.05	0.863	0.891	0.923	0.825	0.672	–	0.332	0.411
LCLC-103H	0.641	0.386	0.482	0.389	0.703	0.621	0.633	0.678	–	–	–	–	0.783	0.612	0.777	0.56	–	–	–	–
LK-2	0.283	0.237	0.264	0.242	0.65	0.933	0.85	0.589	1.07	0.866	0.938	0.739	1.32	0.962	0.927	0.892	0.893	0.792	0.875	0.674
LOU-NH91	0.612	0.503	0.56	0.528	0.802	0.751	0.807	0.773	0.785	0.72	0.851	0.698	1.02	0.879	0.898	0.944	0.846	0.58	0.738	0.692
LU99A	0.412	0.436	0.589	0.507	0.492	0.509	0.508	0.472	1.09	0.967	0.94	0.761	0.802	0.774	0.778	0.751	0.883	0.71	0.798	0.716
NCI-H358	0.177	0.149	0.149	0.148	0.159	0.116	0.125	0.112	0.479	0.408	0.421	0.406	0.878	0.603	0.829	0.535	–	–	–	–
NCI-H441	0.538	0.525	0.494	0.577	0.523	0.453	0.529	0.366	–	–	–	–	0.87	0.884	1.18	0.938	0.682	0.464	0.928	0.66
NCI-H650	0.5	0.384	0.516	0.433	1.1	0.914	1.01	0.952	1.22	0.764	1.38	0.491	1.11	1.01	1.06	1.2	–	–	–	–
NCI-H661	0.982	0.776	1.01	1.04	0.667	0.528	0.681	0.703	0.593	0.451	0.639	0.623	1.05	0.996	1.07	1.07	–	–	–	–
NCI-H1563	0.499	0.502	0.465	0.404	–	–	–	–	1.06	0.945	1.04	0.952	1.03	0.892	0.946	0.856	–	–	–	–
NCI-H1703	–	–	–	–	–	–	–	–	1.08	1.06	1.09	0.678	0.367	–	0.408	0.327	1.14	0.992	0.991	0.525
NCI-H1792	0.829	0.667	0.77	0.781	0.646	0.336	0.446	0.41	0.903	0.892	0.916	0.933	–	–	–	–	0.701	0.605	0.637	0.68
NCI-H2342	0.364	0.312	0.303	0.277	0.799	0.849	0.986	0.95	–	–	–	–	1.2	0.83	1.06	1.18	–	–	–	–
SW 900	0.838	0.436	0.64	0.383	0.785	0.972	0.912	0.693	–	–	–	–	0.918	0.872	0.833	0.955	–	–	–	–
